Test results as given in article PMC4580724 (Clinical Pharmacokinetics, 2015).
“And” between values parts separate entries of the source, which are not always exact repeats. Equal values may be shown once. Read-outs that look alike come from different tables or passages of the source.

Tests used:
[1] = format: in vivo, human; details: for AUC∞ geometric mean ratio test/reference (90 % CI) / C max geometric mean ratio test/reference (90 % CI): substrate + enzalutamide 160 mg/day vs substrate + placebo-to-match, n = 14
[2] = cited from earlier work
CYP2C9 = details: human hepatic microsomes; cited from earlier work
[3] = cited from earlier work; remark: listed apart in the source
CYP2B6 = details: human hepatic microsomes; cited from earlier work
CYP2C19 = details: human hepatic microsomes; cited from earlier work
CYP2C8 = target: T1, CYP2C8 (Homo sapiens, UniProt P10632); details: human hepatic microsomes; cited from earlier work
T1 sequence (P10632 1-490): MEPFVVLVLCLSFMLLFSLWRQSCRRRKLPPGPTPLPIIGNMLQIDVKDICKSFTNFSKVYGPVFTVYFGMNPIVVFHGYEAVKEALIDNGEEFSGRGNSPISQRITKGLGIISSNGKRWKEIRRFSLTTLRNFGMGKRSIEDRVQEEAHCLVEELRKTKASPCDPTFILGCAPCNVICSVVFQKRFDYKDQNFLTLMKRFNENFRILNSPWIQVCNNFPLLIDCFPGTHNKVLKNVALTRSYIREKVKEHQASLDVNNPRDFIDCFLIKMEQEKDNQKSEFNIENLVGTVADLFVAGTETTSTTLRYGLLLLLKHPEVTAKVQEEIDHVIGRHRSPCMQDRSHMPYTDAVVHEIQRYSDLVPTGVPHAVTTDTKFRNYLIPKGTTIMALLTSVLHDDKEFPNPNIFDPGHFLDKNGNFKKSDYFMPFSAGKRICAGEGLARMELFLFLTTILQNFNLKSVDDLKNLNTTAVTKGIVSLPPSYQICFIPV

[4] = format: in vivo, human; details: for t max: median [range]; for AUCτ: one 24-h dosing interval at steady state, 14 patients, enzalutamide 160 mg once daily for 49 days
[5] = format: in vivo, human
[6] = Population pharmacokinetic modeling and simulation; set-up: species or system human; details: with gemfibrozil vs enzalutamide alone
[7] = patients with mCRPC; cited from earlier work
CYP3A4 [8] = details: human primary hepatocyte cultures; cited from earlier work
[9] = cited from earlier work; remark: listed apart in the source
CYP3A4 [10] = assay: Clinical effect of enzalutamide on CYP3A4; details: enzalutamide 160 mg once daily; oral midazolam
[11] = arm 2
[12] = enzalutamide 160 mg/day vs placebo-to-match
[13] = 14 patients taking enzalutamide 160 mg once daily for 49 days, mean ± standard deviation
[14] = 14 patients taking enzalutamide 160 mg once daily for 49 days
[15] = with itraconazole vs enzalutamide alone, observed data
[16] = with itraconazole vs enzalutamide alone

With `OCc1ncc2n1-c1ccc(Cl)cc1C(c1ccccc1F)=NC2` [1-Hydroxy-midalozam, 1-hydroxy-midazolam] as the molecule, how does the “decrease in AUC∞ by enzalutamide” value [1, 12] read?
The value was 76%.

What about the “AUC∞ geometric mean ratio test/reference (90 % CI)” value [1] of the same molecule?
The value was 0.24 (0.20–0.28).

What about the “C max geometric mean ratio test/reference (90 % CI)” value [1] of the same molecule?
Its value is 0.29 (0.24–0.35).

With `COc1ccc2nc([S+]([O-])Cc3ncc(CO)c(OC)c3C)[nH]c2c1` (stereo not drawn) [5-Hydroxy-omeprazole] as the molecule, how does the “decrease in AUC∞ by enzalutamide” value [1, 12] read?
Its value is 54%.

And the “AUC∞ geometric mean ratio test/reference (90 % CI)” value [1]?
Its value is 0.46 (0.39–0.53).

What about the “C max geometric mean ratio test/reference (90 % CI)” value [1] of the same molecule?
The value was 0.64 (0.50–0.83).

What does the source list for `CC(=O)C[C@@H](c1ccccc1)c1c(O)c2ccc(O)cc2oc1=O` [7-Hydroxy-S-warfarin]?
decrease in AUC∞ by enzalutamide [1, 12]: 53%; AUC∞ geometric mean ratio test/reference (90 % CI) [1]: 0.47 (0.35–0.63); C max geometric mean ratio test/reference (90 % CI) [1]: 0.83 (0.71–0.99)

For `CC1(C)C(=O)N(c2ccc(C#N)c(C(F)(F)F)c2)C(=S)N1c1ccc(C(=O)O)c(F)c1` [Carboxylic acid metabolite], which “pharmacological activity (primary and secondary pharmacodynamics)” value [2] is on record?
The value was “pharmacologically inactive”.

And the “inhibition of CYP2C9” value (CYP2C9)?
Its value is “lesser inhibitory effects”.

And the “plasma concentrations lower than enzalutamide” value ([3]; circulating concentrations)?
The value was “approximately 25%”.

And the “inhibition of CYP2B6” value (CYP2B6)?
Its value is “lesser inhibitory effects”.

And the “inhibition of CYP2C19” value (CYP2C19)?
Its value is “may act as inhibitors”.

What about the “inhibition of CYP2C8” value (CYP2C8) of the same molecule?
Its value is “may act as inhibitors”.

And the C max [4, 13]?
Its C max is 8.86 ± 6.52 µg/mL.

And the C trough [4, 13]?
Its C trough is 6.32 ± 5.19 µg/mL.

And the t max [4, 14]?
The t max was 3.5 [0.0–24.0] h.

And the AUCτ ([4]; mean ± standard deviation)?
Its AUCτ is 193 ± 144 µg·h/mL.

What does the source list for `CNC(=O)c1ccc(N2C(=S)N(c3ccc(C#N)c(C(F)(F)F)c3)C(=O)C2(C)C)cc1F` [Enzalutamide, enzalutamide, reference compound]?
inhibition of CYP2C9 (CYP2C9): lesser inhibitory effects; increase in AUC∞ [5, 15]: 1.41 fold; increase in AUC∞ [6]: 4.26 fold; maximum tolerated dose [7]: 240 mg/day; inhibition of CYP2B6 (CYP2B6): lesser inhibitory effects; inhibition of CYP2C19 (CYP2C19): may act as inhibitors; induction of CYP3A4 messenger RNA and enzymatic activity (CYP3A4 [8]): may cause increases in messenger RNA and enzymatic activity for CYP3A4; inhibition of CYP2C8 (CYP2C8): may act as inhibitors; aqueous solubility [9]: ≤ 2.0 µg/mL; C trough [4, 13]: 12.0 ± 3.51 µg/mL; CL/F [4, 13]: 0.52 ± 0.09 L/h; concentration at 49 d ([4]; human, plasma, oral, 160 mg once daily): 12000 ng/mL; Cmax ([4]; human, plasma, oral, 160 mg, C max, 14 patients taking enzalutamide 160 mg once daily for 49 days, mean ± standard deviation): ~17000 ng/mL; CYP3A4 induction classification (CYP3A4 [10]): strong inducer

Which results are given for `CC(O)c1ccc(CCOc2ccc(CC3SC(=O)NC3=O)cc2)nc1` (stereo not drawn) [Hydroxy-pioglitazone (M-IV), Hydroxy-pioglitazone]?
decrease in AUC∞ by enzalutamide [1, 12]: 37%; AUC∞ geometric mean ratio test/reference (90 % CI) [1]: 0.63 (0.52–0.77); C max geometric mean ratio test/reference (90 % CI) [1]: 0.60 (0.52–0.70)

Which “inhibition of CYP2C9” value (CYP2C9) does the source give for `CC1(C)C(=O)N(c2ccc(C#N)c(C(F)(F)F)c2)C(=S)N1c1ccc(C(N)=O)c(F)c1` [N-desmethyl enzalutamide] here?
Its value is “lesser inhibitory effects”.

What about the “circulating plasma concentrations relative to enzalutamide” value [3] of the same molecule?
Its value is “approximately the same plasma concentrations as enzalutamide”.

And the “decrease in Cmax” value ([5]; with gemfibrozil vs enzalutamide alone)?
Its value is 44%.

What about the “decrease in AUC18 d” value ([5]; with gemfibrozil vs enzalutamide alone, observed data) of the same molecule?
The value was 67%.

And the “decrease in AUC18 d” value [5, 16]?
Its value is 4%.

And the “decrease in Cmax” value [5, 16]?
Its value is 14%.

What about the “increase in AUC∞” value [5, 15] of the same molecule?
Its value is 1.21 fold.

What about the “decrease in AUC∞” value [6] of the same molecule?
Its value is 25%.

What about the “inhibition of CYP2B6” value (CYP2B6) of the same molecule?
Its value is “lesser inhibitory effects”.

And the “inhibition of CYP2C19” value (CYP2C19)?
Its value is “may act as inhibitors”.

What about the “inhibition of CYP2C8” value (CYP2C8) of the same molecule?
Its value is “may act as inhibitors”.

What about the C max [4, 13] of the same molecule?
The C max was 12.7 ± 3.77 µg/mL.

What about the C trough [4, 13] of the same molecule?
Its C trough is 10.6 µg/mL and 10.6 ± 3.27 µg/mL.

And the t max [4, 14]?
Its t max is 4.0 [0.0–24.0] h.

And the AUCτ ([4]; mean ± standard deviation)?
Its AUCτ is 278 ± 85.5 µg·h/mL.

With `CC(=O)C[C@H](c1ccccc1)c1c(O)c2ccccc2oc1=O` [R-warfarin, reference compound] as the molecule, how does the “decrease in AUC∞ by enzalutamide” value [1, 12] read?
Its value is 45%.

For `CC(=O)C[C@@H](c1ccccc1)c1c(O)c2ccccc2oc1=O` [S-warfarin, reference compound], which “decrease in AUC∞ by enzalutamide” value [1, 12] is on record?
The value was 56%.

For `Cc1ccc(C)c(OCCCC(C)(C)C(=O)O)c1` [gemfibrozil], which “adverse event above NCI-CTCAE grade 1 with possible relationship” value [11] is on record?
Its value is “grade 2 flatulence in one subject”.

Which results are given for `Cc1ncc2n1-c1ccc(Cl)cc1C(c1ccccc1F)=NC2` [midazolam, reference compound]?
decrease in AUC∞ by enzalutamide [1, 12]: 86%; AUC∞ geometric mean ratio test/reference (90 % CI) [1]: 0.14 (0.12–0.17); C max geometric mean ratio test/reference (90 % CI) [1]: 0.23 (0.20–0.27)

For `COc1ccc2[nH]c([S+]([O-])Cc3ncc(C)c(OC)c3C)nc2c1` (stereo not drawn) [omeprazole, reference compound], which “decrease in AUC∞ by enzalutamide” value [1, 12] is on record?
Its value is 70%.

And the “AUC∞ geometric mean ratio test/reference (90 % CI)” value [1]?
The value was 0.30 (0.24–0.36).

What about the “C max geometric mean ratio test/reference (90 % CI)” value [1] of the same molecule?
Its value is 0.38 (0.26–0.54).

For `CCc1ccc(CCOc2ccc(CC3SC(=O)NC3=O)cc2)nc1` (stereo not drawn) [pioglitazone, reference compound], which “increase in AUC∞ by enzalutamide” value [1, 12] is on record?
Its value is 20%.

And the “AUC∞ geometric mean ratio test/reference (90 % CI)” value [1]?
Its value is 1.20 (0.98–1.47).

And the “C max geometric mean ratio test/reference (90 % CI)” value [1]?
The value was 0.82 (0.67–1.01).
